Laboratory results reported in PubChem BioAssay AID1963976 (Molecular Pharmacology Branch, DTP, NCI, 2024).
Where “and” joins values, the source holds several entries; their conditions need not be identical. Identical values can stand only once.

Test system: 435261-313-R-J1-PDC tumor spheroid viability
Assay: Anticancer human tumor 435261-313-R-J1-PDC patient-derived colon adenocarcinoma cell line growth inhibition [PI3K]
Conditions: spheroids with HUVEC and MSC; for viability, T/C: stronger effect = lower value
Outline: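 Tumor cells were combined with HUVEC and MSCs into spheroids, then dosed with PI3K-inhibitor combinations over half-log ranges capped near clinical Cmax or 10 microM.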

[1] = curve of first compound, second compound 0.00316 µM
[2] = curve of first compound, second compound 0.01 µM
[3] = curve of first compound, second compound 0.0316 µM
[4] = curve of first compound, second compound 0.1 µM
[5] = curve of first compound, second compound 0.316 µM
[6] = curve of first compound, second compound 1 µM
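Note: spheroids exposed to compounds for 7 days.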

Compound: CC1(C)CCC(CN2CCN(c3ccc(C(=O)NS(=O)(=O)c4ccc(NCC5CCOCC5)c([N+](=O)[O-])c4)c(Oc4cnc5[nH]ccc5c4)c3)CC2)=C(c2ccc(Cl)cc2)C1 + CC(Nc1ccc2c(c1)OCCn1cc(N3C(=O)OCC3C(F)F)nc1-2)C(N)=O
- IC50 [1]: 5550 nM
- IC50 [2]: 6170 nM
- IC50 [3]: 4210 nM
- IC50 [4]: < 31.6 nM
- IC50 [5]: < 31.6 nM
- IC50 [6]: < 31.6 nM
- viability, T/C (second compound 0.00316 µM, first compound 0.0316 µM): 69.6%
- viability, T/C (second compound 0.00316 µM, first compound 0.1 µM): 90.5%
- viability, T/C (second compound 0.00316 µM, first compound 0.316 µM): 79.2%
- viability, T/C (second compound 0.00316 µM, first compound 1 µM): 127%
- viability, T/C (second compound 0.00316 µM, first compound 3.16 µM): 81.3%
- viability, T/C (second compound 0.00316 µM, first compound 10 µM): 17.4%
- viability, T/C (second compound 0.01 µM, first compound 0.0316 µM): 81.3%
- viability, T/C (second compound 0.01 µM, first compound 0.1 µM): 77.5%
- viability, T/C (second compound 0.01 µM, first compound 0.316 µM): 79%
- viability, T/C (second compound 0.01 µM, first compound 1 µM): 90.8%
- viability, T/C (second compound 0.01 µM, first compound 3.16 µM): 95.9%
- viability, T/C (second compound 0.01 µM, first compound 10 µM): 24.8%
- viability, T/C (second compound 0.0316 µM, first compound 0.0316 µM): 58.7%
- viability, T/C (second compound 0.0316 µM, first compound 0.1 µM): 59.2%
- viability, T/C (second compound 0.0316 µM, first compound 0.316 µM): 55.1%
- viability, T/C (second compound 0.0316 µM, first compound 1 µM): 65.8%
- viability, T/C (second compound 0.0316 µM, first compound 3.16 µM): 74.4%
- viability, T/C (second compound 0.0316 µM, first compound 10 µM): 11.7%
- viability, T/C (second compound 0.1 µM, first compound 0.0316 µM): 34.1%
- viability, T/C (second compound 0.1 µM, first compound 0.1 µM): 39.8%
- viability, T/C (second compound 0.1 µM, first compound 0.316 µM): 51.5%
- viability, T/C (second compound 0.1 µM, first compound 1 µM): 35.1%
- viability, T/C (second compound 0.1 µM, first compound 3.16 µM): 33.6%
- viability, T/C (second compound 0.1 µM, first compound 10 µM): 10.8%
- viability, T/C (second compound 0.316 µM, first compound 0.0316 µM): 23.1%
- viability, T/C (second compound 0.316 µM, first compound 0.1 µM): 23.3%
- viability, T/C (second compound 0.316 µM, first compound 0.316 µM): 22.3%
- viability, T/C (second compound 0.316 µM, first compound 1 µM): 24%
- viability, T/C (second compound 0.316 µM, first compound 3.16 µM): 26.2%
- viability, T/C (second compound 0.316 µM, first compound 10 µM): 8.22%
- viability, T/C (second compound 1 µM, first compound 0.0316 µM): 16.4%
- viability, T/C (second compound 1 µM, first compound 0.1 µM): 20%
- viability, T/C (second compound 1 µM, first compound 0.316 µM): 14.9%
- viability, T/C (second compound 1 µM, first compound 1 µM): 18.3%
- viability, T/C (second compound 1 µM, first compound 3.16 µM): 18.8%
- viability, T/C (second compound 1 µM, first compound 10 µM): 7.07%

Compound: Cn1cnc2c(F)c(Nc3ccc(Br)cc3Cl)c(C(=O)NOCCO)cc21 + CC(Nc1ccc2c(c1)OCCn1cc(N3C(=O)OCC3C(F)F)nc1-2)C(N)=O
- IC50 [1]: < 9.49 nM
- IC50 [2]: < 9.49 nM
- IC50 [3]: < 9.49 nM
- IC50 [4]: < 9.49 nM
- IC50 [5]: < 9.49 nM
- IC50 [6]: < 9.49 nM
- viability, T/C (second compound 0.00316 µM, first compound 0.00949 µM): 28.1%
- viability, T/C (second compound 0.00316 µM, first compound 0.03 µM): 22.7%
- viability, T/C (second compound 0.00316 µM, first compound 0.0949 µM): 14.8%
- viability, T/C (second compound 0.00316 µM, first compound 0.3 µM): 15.4%
- viability, T/C (second compound 0.00316 µM, first compound 0.949 µM): 16.1%
- viability, T/C (second compound 0.00316 µM, first compound 3 µM): 11%
- viability, T/C (second compound 0.01 µM, first compound 0.00949 µM): 25.1%
- viability, T/C (second compound 0.01 µM, first compound 0.03 µM): 24.3%
- viability, T/C (second compound 0.01 µM, first compound 0.0949 µM): 16.8%
- viability, T/C (second compound 0.01 µM, first compound 0.3 µM): 16.2%
- viability, T/C (second compound 0.01 µM, first compound 0.949 µM): 16.1%
- viability, T/C (second compound 0.01 µM, first compound 3 µM): 11.5%
- viability, T/C (second compound 0.0316 µM, first compound 0.00949 µM): 25.9%
- viability, T/C (second compound 0.0316 µM, first compound 0.03 µM): 23.4%
- viability, T/C (second compound 0.0316 µM, first compound 0.0949 µM): 15.4%
- viability, T/C (second compound 0.0316 µM, first compound 0.3 µM): 14.8%
- viability, T/C (second compound 0.0316 µM, first compound 0.949 µM): 12.2%
- viability, T/C (second compound 0.0316 µM, first compound 3 µM): 6.61%
- viability, T/C (second compound 0.1 µM, first compound 0.00949 µM): 21.4%
- viability, T/C (second compound 0.1 µM, first compound 0.03 µM): 12.5%
- viability, T/C (second compound 0.1 µM, first compound 0.0949 µM): 13.1%
- viability, T/C (second compound 0.1 µM, first compound 0.3 µM): 11.7%
- viability, T/C (second compound 0.1 µM, first compound 0.949 µM): 10.7%
- viability, T/C (second compound 0.1 µM, first compound 3 µM): 6.55%
- viability, T/C (second compound 0.316 µM, first compound 0.00949 µM): 12%
- viability, T/C (second compound 0.316 µM, first compound 0.03 µM): 12.2%
- viability, T/C (second compound 0.316 µM, first compound 0.0949 µM): 4.89%
- viability, T/C (second compound 0.316 µM, first compound 0.3 µM): 8.13%
- viability, T/C (second compound 0.316 µM, first compound 0.949 µM): 7.5%
- viability, T/C (second compound 0.316 µM, first compound 3 µM): 2.69%
- viability, T/C (second compound 1 µM, first compound 0.00949 µM): 11.9%
- viability, T/C (second compound 1 µM, first compound 0.03 µM): 9.34%
- viability, T/C (second compound 1 µM, first compound 0.0949 µM): 5.53%
- viability, T/C (second compound 1 µM, first compound 0.3 µM): 6.3%
- viability, T/C (second compound 1 µM, first compound 0.949 µM): 4.59%
- viability, T/C (second compound 1 µM, first compound 3 µM): 0.73%

Compound: C=CC(=O)N1CCN(c2nc(=O)n(-c3c(C)ccnc3C(C)C)c3nc(-c4c(O)cccc4F)c(F)cc23)C(C)C1 (centres undefined)
- viability, T/C (compound 0.0316 µM): 92% [middle of 4 runs]
- viability, T/C (compound 0.316 µM): 109% [middle of 4 runs]
- viability, T/C (compound 3.16 µM): 137% and 124% (2×) and 123%
- viability, T/C (compound 10 µM): 109% [middle of 4 runs]
- IC50 (curve of compound): > 10000 nM
